Test results as given in ChEMBL document CHEMBL1909046, “DrugMatrix in vitro pharmacology data”.

Columns and labels:
[1] = target: T1, Alpha-2A adrenergic receptor (Homo sapiens, UniProt P08913); assay type: cell membranes, Sf9, Membrane; details: for Ki: read-out: Ki
T1 sequence (P08913 whole entry): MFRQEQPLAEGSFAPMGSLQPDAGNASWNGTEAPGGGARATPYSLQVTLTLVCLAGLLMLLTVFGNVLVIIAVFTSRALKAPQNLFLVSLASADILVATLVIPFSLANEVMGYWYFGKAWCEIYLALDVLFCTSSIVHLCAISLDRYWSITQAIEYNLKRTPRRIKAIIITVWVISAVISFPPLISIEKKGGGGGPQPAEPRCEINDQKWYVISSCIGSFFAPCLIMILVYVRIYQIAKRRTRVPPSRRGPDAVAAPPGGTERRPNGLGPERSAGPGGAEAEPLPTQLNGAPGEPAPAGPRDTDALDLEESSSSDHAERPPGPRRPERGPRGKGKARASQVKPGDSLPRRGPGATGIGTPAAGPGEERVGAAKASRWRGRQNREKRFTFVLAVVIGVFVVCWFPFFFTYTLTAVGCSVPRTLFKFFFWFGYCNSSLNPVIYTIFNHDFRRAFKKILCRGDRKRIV

[2] = target: Cytochrome P450 2D6 (Homo sapiens, UniProt P10635); details: bti-tn-5b1-4
Chain of Cytochrome P450 2D6 (P10635 whole entry): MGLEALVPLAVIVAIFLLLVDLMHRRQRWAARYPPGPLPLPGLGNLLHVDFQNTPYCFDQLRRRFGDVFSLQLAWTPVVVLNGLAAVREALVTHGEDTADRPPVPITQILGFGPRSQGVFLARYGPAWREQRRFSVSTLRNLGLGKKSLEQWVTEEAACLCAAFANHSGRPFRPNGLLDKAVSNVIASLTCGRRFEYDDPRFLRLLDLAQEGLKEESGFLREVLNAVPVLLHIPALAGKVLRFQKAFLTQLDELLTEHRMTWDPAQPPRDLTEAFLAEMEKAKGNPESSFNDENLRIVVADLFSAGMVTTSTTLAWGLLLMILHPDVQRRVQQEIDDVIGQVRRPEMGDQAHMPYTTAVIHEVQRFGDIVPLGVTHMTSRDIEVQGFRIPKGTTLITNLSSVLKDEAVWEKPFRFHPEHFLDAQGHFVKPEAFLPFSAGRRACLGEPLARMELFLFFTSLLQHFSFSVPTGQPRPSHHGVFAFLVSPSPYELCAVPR

[3] = target: T2, Alpha-1D adrenergic receptor (Homo sapiens, UniProt P25100); assay type: cell membranes, HEK293, Membrane
T2 sequence (P25100 whole entry): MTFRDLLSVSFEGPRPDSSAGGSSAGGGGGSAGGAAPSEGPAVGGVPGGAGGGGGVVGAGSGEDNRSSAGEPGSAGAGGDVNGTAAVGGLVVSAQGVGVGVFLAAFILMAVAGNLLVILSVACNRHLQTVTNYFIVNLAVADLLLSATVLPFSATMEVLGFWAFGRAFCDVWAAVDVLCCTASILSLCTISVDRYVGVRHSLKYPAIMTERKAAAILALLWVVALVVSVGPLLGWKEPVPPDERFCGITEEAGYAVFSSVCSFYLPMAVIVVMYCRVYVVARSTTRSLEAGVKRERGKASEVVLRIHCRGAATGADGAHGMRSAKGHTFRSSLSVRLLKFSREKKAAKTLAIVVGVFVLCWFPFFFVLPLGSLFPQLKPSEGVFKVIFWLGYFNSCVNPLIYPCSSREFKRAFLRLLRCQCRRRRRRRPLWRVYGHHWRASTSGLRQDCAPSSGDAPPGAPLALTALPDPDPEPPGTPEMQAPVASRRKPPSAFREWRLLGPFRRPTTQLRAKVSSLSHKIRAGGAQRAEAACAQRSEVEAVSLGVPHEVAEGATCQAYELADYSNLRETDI

[4] = target: Receptor tyrosine-protein kinase erbB-2 (Homo sapiens, UniProt P04626); experiment: biochemical; assay type: cell-based, Insect cells; details: insect cells;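 further: inhibition of HER2 kinase enzyme activity, measured with Poly(Glu:Tyr) as the phosphorylation substrate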
Chain of Receptor tyrosine-protein kinase erbB-2 (P04626 whole entry): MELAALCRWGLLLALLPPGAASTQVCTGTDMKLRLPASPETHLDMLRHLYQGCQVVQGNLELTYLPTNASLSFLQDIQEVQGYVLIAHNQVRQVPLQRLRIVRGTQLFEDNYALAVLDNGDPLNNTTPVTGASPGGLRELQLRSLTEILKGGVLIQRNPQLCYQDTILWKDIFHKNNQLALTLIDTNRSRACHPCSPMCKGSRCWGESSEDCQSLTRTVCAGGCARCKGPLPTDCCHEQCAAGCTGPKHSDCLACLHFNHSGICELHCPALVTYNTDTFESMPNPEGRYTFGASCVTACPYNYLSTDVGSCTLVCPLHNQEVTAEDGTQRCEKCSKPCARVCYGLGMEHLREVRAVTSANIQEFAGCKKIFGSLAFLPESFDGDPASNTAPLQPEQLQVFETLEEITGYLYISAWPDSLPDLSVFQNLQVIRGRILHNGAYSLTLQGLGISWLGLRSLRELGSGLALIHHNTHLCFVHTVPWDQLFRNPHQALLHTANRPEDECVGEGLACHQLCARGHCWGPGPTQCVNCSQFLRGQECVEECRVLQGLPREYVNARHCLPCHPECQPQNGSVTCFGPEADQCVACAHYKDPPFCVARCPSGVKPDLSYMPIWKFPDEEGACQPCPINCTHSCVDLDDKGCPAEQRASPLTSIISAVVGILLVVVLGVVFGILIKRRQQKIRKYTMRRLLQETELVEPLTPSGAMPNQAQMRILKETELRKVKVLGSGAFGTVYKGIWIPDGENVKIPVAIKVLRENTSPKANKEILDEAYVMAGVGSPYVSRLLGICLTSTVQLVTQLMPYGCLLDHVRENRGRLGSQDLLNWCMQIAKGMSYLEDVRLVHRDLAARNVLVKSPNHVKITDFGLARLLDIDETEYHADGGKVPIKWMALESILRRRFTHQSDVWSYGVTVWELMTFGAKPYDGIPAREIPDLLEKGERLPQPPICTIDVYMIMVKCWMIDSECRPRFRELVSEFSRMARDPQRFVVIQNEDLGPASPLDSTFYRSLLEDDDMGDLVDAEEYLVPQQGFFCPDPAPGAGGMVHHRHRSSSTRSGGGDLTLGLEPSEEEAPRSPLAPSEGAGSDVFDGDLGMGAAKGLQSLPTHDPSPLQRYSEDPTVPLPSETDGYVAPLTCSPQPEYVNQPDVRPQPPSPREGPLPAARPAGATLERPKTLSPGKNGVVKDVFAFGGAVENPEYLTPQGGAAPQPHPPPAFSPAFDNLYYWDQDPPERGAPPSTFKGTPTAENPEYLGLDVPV
Further: in other assays of this panel Not Active means under 50% inhibition at 10 µM.

Structure (SMILES) | IC50 ([1]; sf9) | IC50 [2] | Ki [2] | IC50 ([3]; hek293) | IC50 [4] | Ki [3] [nM] | IC50 ([3]; read-out: IC50) [nM] | Ki ([3]; read-out: Ki) [nM] | IC50 ([1]; read-out: IC50) [nM] | Ki [1] [nM]
O=C/C=C/c1ccccc1 | Not Active | Not Active | Not Active | Not Active | Not Active |  |  |  |  | 
COc1ccc(C(=O)N2CCCC2=O)cc1 | Not Active | Not Active | Not Active | Not Active | Not Active |  |  |  |  | 
CC[C@H](C)[C@H]1O[C@]2(C=C[C@@H]1C)C[C@@H]1C[C@@H](C/C=C(\C)[C@@H](O[C@H]3C[C@H](OC)[C@@H](O[C@H]4C[C@H](OC)[C@@H](O)[C@H](C)O4)[C@H](C)O3)[C@@H](C)/C=C/C=C3\CO[C@@H]4[C@H](O)C(C)=C[C@@H](C(=O)O1)[C@]34O)O2.CO[C@H]1C[C@H](O[C@H]2[C@H](C)O[C@@H](O[C@@H]3/C(C)=C/C[C@@H]4C[C@@H](C[C@]5(C=C[C@H](C)[C@@H](C(C)C)O5)O4)OC(=O)[C@@H]4C=C(C)[C@@H](O)[C@H]5OC/C(=C\C=C\[C@@H]3C)[C@]54O)C[C@@H]2OC)O[C@@H](C)[C@@H]1O [ABAMECTIN] | Not Active | Not Active | Not Active | Not Active | Not Active |  |  |  |  | 
NCCCC(O)(P(=O)(O)O)P(=O)(O)O [ALENDRONIC ACID] | Not Active |  |  | Not Active | Not Active |  |  |  |  | 
Cc1nnc2n1-c1ccc(Cl)cc1C(c1ccccc1)=NC2 [ALPRAZOLAM] | Not Active | Not Active | Not Active | Not Active | Not Active |  |  |  |  | 
Cn1c(=O)c2[nH]cnc2n(C)c1=O.Cn1c(=O)c2[nH]cnc2n(C)c1=O.NCCN [AMINOPHYLLINE] | Not Active | Not Active | Not Active | Not Active | Not Active |  |  |  |  | 
CC1(C)S[C@@H]2[C@H](NC(=O)[C@H](N)c3ccccc3)C(=O)N2[C@H]1C(=O)O [AMPICILLIN] | Not Active | Not Active | Not Active | Not Active | Not Active |  |  |  |  | 
COc1ccc(C2C(=O)c3ccccc3C2=O)cc1 [ANISINDIONE] | Not Active | Not Active | Not Active | Not Active | Not Active |  |  |  |  | 
O=C1O[C@H]([C@@H](O)CO)C(O)=C1O [ASCORBIC ACID] | Not Active | Not Active | Not Active | Not Active | Not Active |  |  |  |  | 
CN1[C@@H]2CC[C@H]1C[C@@H](OC(=O)C(CO)c1ccccc1)C2 (stereo partly drawn) [ATROPINE] | Not Active |  |  |  | Not Active | 666 | 1350 |  |  | 
COc1ccc2cc3[n+](cc2c1OC)CCc1cc2c(cc1-3)OCO2.[Cl-] [BERBERINE CHLORIDE] | Not Active |  |  | Not Active | Not Active |  |  |  |  | 
O=C(O)CCNC(=O)c1ccccc1 [BETAMIPRON] | Not Active | Not Active | Not Active | Not Active | Not Active |  |  |  |  | 
Cc1cc2c(OCC(CNC(C)(C)C)OC(=O)c3ccccc3)cccc2[nH]1 (stereo not drawn) [BOPINDOLOL] | Not Active |  |  | Not Active | Not Active |  |  |  |  | 
Brc1c(NC2=NCCN2)ccc2nccnc12 [BRIMONIDINE] |  | Not Active | Not Active |  | Not Active |  | 1720 | 846 |  | 
CN/C(=N\CCSCc1nc[nH]c1C)NC#N [CIMETIDINE] | Not Active | Not Active | Not Active | Not Active | Not Active |  |  |  |  | 
COc1cc(N)c(Cl)cc1C(=O)NC1CCN(CCCOc2ccc(F)cc2)CC1OC (stereo not drawn) [CISAPRIDE] |  |  |  |  | Not Active |  | 189 | 93 |  | 
Nc1ccn([C@@H]2O[C@H](CO)[C@@H](O)[C@@H]2O)c(=O)n1 [CYTARABINE] | Not Active | Not Active | Not Active | Not Active | Not Active |  |  |  |  | 

Structure (SMILES) | IC50 ([1]; sf9) | IC50 [2] | Ki [2] | IC50 ([3]; hek293) | IC50 [4] | Ki [3] [nM] | IC50 ([3]; read-out: IC50) [nM] | Ki ([3]; read-out: Ki) [nM] | IC50 ([1]; read-out: IC50) [nM] | Ki [1] [nM]
C[C@@H]1C[C@H]2[C@@H]3CCC4=CC(=O)C=C[C@]4(C)[C@@]3(F)[C@@H](O)C[C@]2(C)[C@@]1(O)C(=O)CO [DEXAMETHASONE] | Not Active |  |  | Not Active | Not Active |  |  |  |  | 
CN(C)CC[C@@H](c1ccc(Cl)cc1)c1ccccn1 [DEXCHLORPHENIRAMINE] |  | Not Active | Not Active |  | Not Active |  | 33700 | 16600 | 20300 | 7620
C[C@H]1O[C@@H](n2cc(F)c(=O)[nH]c2=O)[C@H](O)[C@@H]1O [DOXIFLURIDINE] | Not Active | Not Active | Not Active | Not Active | Not Active |  |  |  |  | 
Cn1c(=O)c2c(ncn2CC(O)CO)n(C)c1=O (stereo not drawn) [DYPHYLLINE] | Not Active | Not Active | Not Active | Not Active | Not Active |  |  |  |  | 
CC[C@H]1CN2CCc3cc(OC)c(OC)cc3[C@@H]2C[C@@H]1C[C@H]1NCCc2cc(OC)c(OC)cc21 [EMETINE] |  | Not Active | Not Active | Not Active | Not Active |  |  |  | 38 | 14
COC(=O)CCc1ccc(OCC(O)CNC(C)C)cc1 (stereo not drawn) [ESMOLOL] | Not Active | Not Active | Not Active | Not Active | Not Active |  |  |  |  | 
CCC1(C)CC(=O)NC1=O (stereo not drawn) [ETHOSUXIMIDE] | Not Active | Not Active | Not Active | Not Active | Not Active |  |  |  |  | 
C#C[C@]1(OC(C)=O)CC[C@H]2[C@@H]3CCC4=C[C@@H](OC(C)=O)CC[C@@H]4[C@H]3CC[C@@]21C [ETHYNODIOL DIACETATE] | Not Active | Not Active | Not Active | Not Active | Not Active |  |  |  |  | 
COc1cc([C@@H]2c3cc4c(cc3[C@@H](O[C@@H]3O[C@@H]5CO[C@@H](C)O[C@H]5[C@H](O)[C@H]3O)[C@H]3COC(=O)[C@H]23)OCO4)cc(OC)c1O [ETOPOSIDE] | Not Active |  |  | Not Active | Not Active |  |  |  |  | 
C=CCc1ccc(O)c(OC)c1 [EUGENOL] | Not Active | Not Active | Not Active | Not Active | Not Active |  |  |  |  | 
CC(C(=O)O)c1cccc(Oc2ccccc2)c1 (stereo not drawn) [FENOPROFEN] | Not Active | Not Active | Not Active | Not Active | Not Active |  |  |  |  | 
CC(C)(C)NC(=O)[C@H]1CC[C@H]2[C@@H]3CC[C@H]4NC(=O)C=C[C@]4(C)[C@H]3CC[C@]12C [FINASTERIDE] | Not Active | Not Active | Not Active | Not Active | Not Active |  |  |  |  | 
Nc1ccn([C@@H]2O[C@H](CO)[C@@H](O)C2(F)F)c(=O)n1 [GEMCITABINE] | Not Active | Not Active | Not Active | Not Active | Not Active |  |  |  |  | 
N=C(N)NC(=O)Cc1c(Cl)cccc1Cl [GUANFACINE] |  | Not Active | Not Active | Not Active | Not Active |  |  |  |  | 
Cc1c(OCC(F)(F)F)ccnc1C[S+]([O-])c1nc2ccccc2[nH]1 (stereo not drawn) [LANSOPRAZOLE] | Not Active |  |  | Not Active | Not Active |  |  |  |  | 
COc1cc2nc(N3CCN(C(=O)c4ccco4)CC3)nc(N)c2cc1OC [PRAZOSIN] |  | Not Active | Not Active |  | Not Active |  |  |  |  | 
CCCNCC(O)COc1ccccc1C(=O)CCc1ccccc1 (stereo not drawn) [PROPAFENONE] | Not Active |  |  | Not Active | Not Active |  |  |  |  | 
